Test: gradient 5% acetonitrile 3 min, to 50% in 2 min, to 85% in 15 min, held 3 min, 100 µL/min
Details: column: Zorbax Extend-C18 2.1 x 50 mm; eluents: water / acetonitrile, 0.1% formic acid
How it was run: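 Mixtures of ~100 pure standards were chromatographed on a Zorbax Extend-C18 column (2.1 × 50 mm, 1.8 μm) at 100 μL/min using water and acetonitrile, each with 0.1% formic acid. Detection used a quadrupole time-of-flight mass spectrometer in positive and negative ionization mode, and data collection spanned 3 months. Retention time was obtained from adduct peaks picked computationally and each checked manually.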

Compound | RP-LC retention time [s]
COC1CCOC2(CCN(C(=O)Nc3ccc4c(c3)OCCO4)CC2)C1 (stereo unspecified) | 690
Cc1cc(C)cc(OCCNS(=O)(=O)c2cccs2)c1 | 935
Cc1nc(-c2ccncc2)nc2c1CCC(=O)N2Cc1ccccn1 | 559
CNc1nccc(N2CCC(CC(=O)NCCCN3CCCC3=O)CC2)n1 | 490
CC(=O)Nc1ccc(NC(=O)C2CCN(S(=O)(=O)c3c(C)nn(-c4ccccc4)c3C)CC2)cc1 | 754
Cc1c(C(=O)N2CCSCC2)cnn1-c1ccc(-c2nc(C(C)(C)C)no2)cn1 | 1070
CC1CCCCN1CCNC(=O)c1ccc2c(c1)nc1n2CCN(Cc2ccccc2)C1=O (stereo unspecified) | 601
CCOC(=O)c1c(C)[nH]c(C(=O)N2CCC(C(C)C(=O)NCc3ccccc3C)CC2)c1C (stereo unspecified) | 851
COc1cc(NC(=O)N2CCc3c(c(C(=O)N4CCCC4)nn3C)C2)cc(OC)c1 | 693
O=C(CN1CCCCC1c1nc(C2CC2)no1)Nc1cccnc1 (stereo unspecified) | 592
Cc1noc(C2CN(C(=O)Nc3cccc(C)c3C)CC23CCOCC3)n1 (stereo unspecified) | 715
COc1cc(NC(=O)C(C)Oc2ccc(=O)n(-c3ccc(F)cc3)n2)cc(OC)c1OC (stereo unspecified) | 719
CN1CCc2c(c(CNC(=O)c3cc(CN4CCOCC4)on3)nn2C)C1 | 770
CCOC(=O)C1CCN(C(=O)C2CCN(c3cncnc3N3CCCC3)CC2)CC1 | 629
CCc1nn2c(CNS(=O)(=O)c3cc(C)cc(C)c3)c(-c3ccccc3)nc2s1 | 941
CCCN1C(=O)NC2(CCN(C(=O)Nc3ccccc3C(F)(F)F)CC2)C1=O | 705
Cc1noc(-c2cccn2Cc2cc(F)cc(F)c2)n1 | 1040
CCc1nc(-c2csc(S(=O)(=O)N3CCCC(C(=O)Nc4cccc(C)c4)C3)c2)no1 (stereo unspecified) | 983
CCC(C)NC(=O)C1CCN(S(=O)(=O)c2ccc3c(c2)sc(=O)n3C)CC1 (stereo unspecified) | 757
CC1=C(c2ccc(C)cc2)S(=O)(=O)N=C1N1CCCN(C(=O)CC(C)(C)C)CC1 | 888
CCn1ncc(Cl)c1C(=O)N1CCCC1c1cc(C)no1 (stereo unspecified) | 741
CCOc1ccc(CNC(=O)C2=Cc3cc(OC)ccc3OC2)cc1OC | 861

Compound | RP-LC retention time [s]
CCOc1ccc(NC(=O)N2CCCC(C)(C(=O)NCc3cccc(OC)c3)C2)cc1 (stereo unspecified) | 872
Cc1c(O)ccc2c1oc(=O)c1ccccc12 | 808
CCCC(NC(=O)CCc1c(-c2ccc(Cl)cc2)nc2ccccn12)c1cccs1 (stereo unspecified) | 767
Cc1ccc(NC(=O)N2CCCC2c2c(C)noc2C)cc1F (stereo unspecified) | 809
Cc1ccccc1Nc1c(-c2ccc(Cl)cc2)nc2cnccn12 | 1030
CCOC(=O)c1c(CN2CCN(CC#N)CC2)n(C)c2cc(Br)c(OC(C)=O)cc12 | 706
CCN1CCN(C(=O)c2ccc3ccnc(N4CCN(c5ccc(Cl)cc5)CC4)c3c2)CC1 | 618
O=S(=O)(NC1CCCCC1)c1ccc(-c2cc(C(F)(F)F)on2)o1 | 1120
CCCNC(=O)C1CCN(c2ccc(SCC(=O)NCc3ccc(C)c(C)c3)nn2)CC1 | 663
Cc1ccc(NC(=O)C2CCN(S(=O)(=O)c3cn(C(C)C)cn3)CC2)cc1C | 819
O=C(NCc1cc(F)cc(F)c1)c1ccc2c(c1)ncn2CCN1CCCC1 | 594
COc1ccc(C2(C(=O)N3CCCC3c3nc(-c4ccccc4Cl)no3)CC2)cc1 (stereo unspecified) | 1070
O=C(Cc1cccs1)N1CCc2[nH]nc(-c3ccccc3)c2C1 | 839
CCn1cc(-c2nc(-c3ccc(Cl)cc3)no2)c(=O)c2cc(F)c(N3CCOCC3)cc21 | 1020
O=C(CN1C(=O)CCc2cc(Br)ccc21)N1CCN(c2ccc(F)cc2)CC1 | 949
COc1cc(CNC(=O)CCc2ccc(C(F)(F)F)cc2)cc(OC)c1OC | 809
Cc1nn(-c2cc(N3CCCCC3)ncn2)c(C)c1CCC(=O)NC(C)CCc1ccco1 (stereo unspecified) | 941
COc1ccc2c(c1)C1(CCN(S(=O)(=O)c3c(C)noc3C)C1)C(=O)N2C (stereo unspecified) | 877
COc1cc(Nc2ncc3c(n2)-c2ccc(Cl)cc2C(c2c(F)cccc2OC)=NC3)ccc1C(=O)O | 919
COc1ccc(Nc2cc(C(=O)N3CCCCC3)nc3c(OC)cccc23)cc1OC | 570
COc1cc(CCC(=O)N2C[C@@H](C(N)=O)[C@H](c3nc(C)no3)C2)on1 | 600
COCCn1c(SCc2nc(-c3ccc(OC)cc3)no2)nc2cc3c(cc2c1=O)OCO3 | 1020

Compound | RP-LC retention time [s]
N#Cc1cccc(CN2CCCC2c2nc(-c3ccccc3)n[nH]2)c1 (stereo unspecified) | 616
CC(=O)NCc1ccc(-c2noc(-c3ccc(N(C)C)cc3)n2)s1 | 861
Cc1ccc(N2CC(c3nc(-c4ccc5c(c4)OCO5)no3)CC2=O)cc1C (stereo unspecified) | 911
Cc1cccc(NC(=O)Cn2c(=O)n(-c3ccccc3)c3ncccc32)c1 | 851
COc1cccc(-n2c(=O)c3sccc3n(Cc3nc(-c4ccc(C)c(C)c4)no3)c2=O)c1 | 1160
COC(=O)c1ccccc1NC(=O)Cn1c(=O)n(-c2ccccc2)c(=O)c2c1cc(C)n2C | 911
CN(C1CCc2nn(CC3CC3)c(=O)n2CC1)S(=O)(=O)c1ccc(C(F)(F)F)cc1 (stereo unspecified) | 876
CC(C)n1cnc(S(=O)(=O)N2CCC(C(=O)N3CCN(c4cccc(Cl)c4)CC3)CC2)c1 | 876
O=C(CCc1ccccc1)Nc1cnn(-c2ncncc2N2CCOCC2)c1 | 649
COc1cc(NC(=O)c2noc3c2CC(C)CC3)cc(OC)c1OC (stereo unspecified) | 932
CCc1ccc(C2=C(C)C(N3CCCN(C(C)=O)CC3)=NS2(=O)=O)cc1 | 745
CCOc1ccccc1NC(=O)N1CCC2(CC1)NC(=O)c1ccccc1O2 | 810
O=C(c1ccc(-c2ccsc2)nc1)N1CCCC1 | 716
CCC1CN(C(=O)Nc2ccccc2)c2ccccc2O1 (stereo unspecified) | 1020
O=C(NCCc1csc(-c2ccccc2)n1)[C@H]1CCCN1C(=O)c1ccc(F)cc1 | 812
CS(=O)(=O)N(Cc1ccccn1)C1CN(C(=O)C2CCC2)C1 | 603
CN(CC1CCOCC1)C(=O)Nc1ccc2c(c1)OCCO2 | 670
COc1cc(NC(=O)Cn2c(C)cc(-c3nnc(C)o3)c2C)cc(OC)c1 | 748
CCOCCCNC(=O)c1cc2n(n1)CCCN(Cc1cccc(C)c1)C2=O | 780
Cc1ccc(-n2nc(OC(C)C(=O)NCc3ccco3)ccc2=O)cc1C (stereo unspecified) | 748
CCN1CCCn2nc(C3CCN(C(=O)COc4ccccc4)CC3)cc2C1=O | 678
Cc1ccc(NC(=O)c2ccco2)c(C(=O)c2ccccc2)c1 | 995

Reference: the METLIN SMRT retention time set (Domingo-Almenara et al. 2019)
